# Activity calls are given as the source filed them. No cut-off for these calls is given here.
# Columns and labels:
# Type in all cases: functional, cell-based
# [1] = target: High affinity nerve growth factor receptor (Rattus norvegicus) (UniProt P35739); experiment: Induction of NGF receptor-induced differentiation of PC12 cells at 1-100 ug/ml; settings: PC-12
# PC-12 [2] = experiment: Inhibition of PC12 cell differentiation at 100 ug/ml (No effect); settings: Rattus norvegicus
# [3] = target: High affinity nerve growth factor receptor (Rattus norvegicus) (UniProt P35739); experiment: Inhibition of NGF receptor-induced differentiation of PC12 cells at 100 ug/ml (No effect); settings: PC-12
# [4] = target: High affinity nerve growth factor receptor (Rattus norvegicus) (UniProt P35739); experiment: Induction of NGF receptor-induced differentiation of PC12 cells at 100 and 10 ug/ml; settings: PC-12
# PC-12 [5] = experiment: Induction of PC12 cell differentiation at 100 ug/ml; settings: Rattus norvegicus
# Chain of High affinity nerve growth factor receptor (Rattus norvegicus) (P35739 whole entry): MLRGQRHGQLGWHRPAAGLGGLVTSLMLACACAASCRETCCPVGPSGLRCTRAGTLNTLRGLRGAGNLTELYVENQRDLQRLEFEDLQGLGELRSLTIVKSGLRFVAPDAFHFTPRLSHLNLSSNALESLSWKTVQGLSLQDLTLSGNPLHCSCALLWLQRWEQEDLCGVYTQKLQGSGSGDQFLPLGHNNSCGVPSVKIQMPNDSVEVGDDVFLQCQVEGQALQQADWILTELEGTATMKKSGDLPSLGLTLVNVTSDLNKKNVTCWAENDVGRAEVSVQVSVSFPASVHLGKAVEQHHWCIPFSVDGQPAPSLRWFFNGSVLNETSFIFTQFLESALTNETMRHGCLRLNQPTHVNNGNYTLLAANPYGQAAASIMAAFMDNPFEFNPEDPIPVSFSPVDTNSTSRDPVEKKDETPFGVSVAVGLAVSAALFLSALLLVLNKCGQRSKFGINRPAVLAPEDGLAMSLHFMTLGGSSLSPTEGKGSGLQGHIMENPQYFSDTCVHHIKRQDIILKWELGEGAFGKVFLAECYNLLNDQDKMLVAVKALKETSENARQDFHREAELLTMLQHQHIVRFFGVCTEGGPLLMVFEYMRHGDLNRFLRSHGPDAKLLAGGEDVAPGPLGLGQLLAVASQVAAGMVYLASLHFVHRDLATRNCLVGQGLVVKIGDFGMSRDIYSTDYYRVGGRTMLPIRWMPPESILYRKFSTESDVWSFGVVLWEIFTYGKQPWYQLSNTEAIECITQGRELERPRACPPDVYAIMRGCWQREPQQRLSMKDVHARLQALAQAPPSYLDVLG
compound,measurement,setting,value
"NC(=O)c1csc([C@@H]2O[C@H](CO)C(O)[C@H]2O)n1 (single isomer, unassigned)",Activity,[1],Active
NC(=O)c1csc([C@@H]2O[C@H](CO)C2CO)n1 (stereo not given in full),NA,PC-12 [2],inactive
same,NA,[3],inactive
NC(=O)c1csc([C@@H]2C[C@H](CO)C2CO)n1 (stereo not given in full),Induction,[4],Active
same,Induction,PC-12 [5],Active
